Eight molecules from PubChem BioAssay (NCI) can be followed below.

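1) Cells in 96-well plates. 2) Compound, 48 h, 5 concentrations. 3) Linear interpolation between surrounding doses. 4) Unreached endpoint = highest concentration. TGI is the concentration that stops growth completely.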

Some test systems named below: UO-31 renal; SNB-75 CNS; OVCAR-5 ovarian; SF-539 CNS; KM12 colon; U251 CNS; CAKI-1 renal; K-562 leukemia; OVCAR-8 ovarian; M14 melanoma; MDA-MB-435; SN12C renal; NCI-H226 lung; A549 NSCLC; SK-MEL-28 melanoma; HT29 colon; OVCAR-3 ovarian; HCC-2998 colon.
What all share (test): NCI-60 cell line screen, 48 h

Consider `C#CCOC(=O)c1ccccc1O`, for which the TGI in the assay with UO-31 renal, in the assay on SNB-75 CNS, in the assay with OVCAR-5 ovarian, in the assay on SF-539 CNS, in the assay with KM12 colon and in the assay with U251 CNS was greater than 100 µM each time. Also, the TGI in the assay on CAKI-1 renal, in the assay on K-562 leukemia, with OVCAR-8 ovarian, in the assay with M14 melanoma, with MDA-MB-435 and with SN12C renal was greater than 100 µM throughout. This molecule also registered a TGI with NCI-H226 lung greater than 100 µM.

On to `COc1cccc2c1CCc1ccccc1CC2=O`, for which the TGI in the assay with UO-31 renal, in the assay on SNB-75 CNS, in the assay on A549 NSCLC, with OVCAR-5 ovarian, in the assay with SF-539 CNS and in the assay with KM12 colon was greater than 100 µM each time. Besides, the TGI in the assay on SK-MEL-28 melanoma, in the assay with U251 CNS, in the assay with CAKI-1 renal, with HT29 colon, with OVCAR-3 ovarian and in the assay on HCC-2998 colon was greater than 100 µM each time. The TGI in the assay on K-562 leukemia, in the assay with OVCAR-8 ovarian, in the assay with M14 melanoma, in the assay with SN12C renal and in the assay on NCI-H226 lung was greater than 100 µM each time.

As to `Cc1cc(C)nc(NS(=O)(=O)c2ccc(Nc3nncc(=O)n3N)cc2)n1`, the TGI in the assay on UO-31 renal was 33.9 µM; in the assay on A549 NSCLC, greater than 100 µM; in the assay with OVCAR-5 ovarian it was 37.2 µM; in the assay on SF-539 CNS, greater than 100 µM; in the assay with KM12 colon, greater than 100 µM; with SK-MEL-28 melanoma, 74.6 µM. The TGI in the assay on U251 CNS was found to be 31.5 µM; in the assay on CAKI-1 renal it was 29.5 µM; in the assay with HT29 colon it was 32.2 µM; in the assay with OVCAR-3 ovarian it was 29.8 µM; in the assay with HCC-2998 colon, 80.7 µM; with K-562 leukemia, 43.9 µM. In addition, the TGI is 29.2 µM in the assay on OVCAR-8 ovarian, greater than 100 µM in the assay with M14 melanoma and 33 µM in the assay with MDA-MB-435.

In the case of `COc1ccc(N2C(=O)C3c4[nH]c5ccc(OC)cc5c4C4CCC(C(C)(C)C)CC4C3C2=O)cc1` (stereo not drawn), the TGI was greater than 100 µM in the assay on UO-31 renal; 35.6 µM with SNB-75 CNS; greater than 100 µM with A549 NSCLC; greater than 100 µM in the assay on OVCAR-5 ovarian; 55.1 µM in the assay on SF-539 CNS; greater than 100 µM in the assay with KM12 colon. Moreover, the TGI in the assay on SK-MEL-28 melanoma was greater than 100 µM; in the assay with U251 CNS, 44.8 µM; in the assay with CAKI-1 renal, greater than 100 µM; in the assay with HT29 colon it was greater than 100 µM; in the assay with OVCAR-3 ovarian, greater than 100 µM; in the assay on HCC-2998 colon it was greater than 100 µM. The TGI with K-562 leukemia, in the assay with OVCAR-8 ovarian, in the assay on M14 melanoma, in the assay on SN12C renal and in the assay with NCI-H226 lung was greater than 100 µM throughout.

For the molecule `C/C=C(C)/C=C/CC(C)CCC=C(C)C` (stereo not drawn), the TGI in the assay with UO-31 renal, in the assay with SNB-75 CNS, in the assay on A549 NSCLC, in the assay with OVCAR-5 ovarian, in the assay on SF-539 CNS and in the assay on KM12 colon was greater than 100 µM throughout. The TGI in the assay with SK-MEL-28 melanoma, in the assay with U251 CNS, with CAKI-1 renal, in the assay on HT29 colon, in the assay on OVCAR-3 ovarian and in the assay on K-562 leukemia was greater than 100 µM each time. Also, the TGI in the assay with OVCAR-8 ovarian, in the assay with M14 melanoma, in the assay on MDA-MB-435, in the assay with SN12C renal and in the assay on NCI-H226 lung was greater than 100 µM in each case.

Consider `C[C@H]1O[C@@H](c2c(O)ccc3ccccc23)C[C@@H](N(C)C)C1O` (stereo partly drawn), for which the TGI in the assay with UO-31 renal, in the assay on SNB-75 CNS, in the assay with A549 NSCLC, with OVCAR-5 ovarian, in the assay with SF-539 CNS and with SK-MEL-28 melanoma was greater than 100 µM in each case. For the same molecule, the TGI in the assay on U251 CNS, in the assay on HT29 colon, with OVCAR-3 ovarian, in the assay with HCC-2998 colon, in the assay on K-562 leukemia and in the assay on OVCAR-8 ovarian was greater than 100 µM throughout. Further, the TGI in the assay with M14 melanoma, in the assay with MDA-MB-435, in the assay with SN12C renal and in the assay on NCI-H226 lung was greater than 100 µM in each case.

With `COC(=O)[C@@H]1CN(C(=O)c2ccccc2)C(=O)N1`, the TGI in the assay on UO-31 renal, in the assay on SNB-75 CNS, in the assay on A549 NSCLC, with OVCAR-5 ovarian, in the assay on SF-539 CNS and in the assay with KM12 colon was greater than 100 µM each time. In addition, the TGI in the assay with SK-MEL-28 melanoma, in the assay with U251 CNS, in the assay on HT29 colon, in the assay on OVCAR-3 ovarian, in the assay with K-562 leukemia and in the assay with OVCAR-8 ovarian was greater than 100 µM in each case. For the same molecule, the TGI in the assay with M14 melanoma, with MDA-MB-435, with SN12C renal and with NCI-H226 lung was greater than 100 µM in each case.

On to `O=c1cc(-c2ccccc2)[nH]c2cc(F)c(F)cc12`, for which the TGI with UO-31 renal is greater than 100 µM; in the assay on SNB-75 CNS it was 90 µM; with A549 NSCLC, greater than 31.5 µM; with OVCAR-5 ovarian, greater than 100 µM; with SF-539 CNS, 2.33 µM; in the assay on KM12 colon, greater than 100 µM. Besides, the TGI in the assay on SK-MEL-28 melanoma is greater than 100 µM; in the assay with U251 CNS, greater than 58.6 µM; in the assay on CAKI-1 renal, greater than 100 µM; in the assay with HT29 colon, greater than 46.4 µM; in the assay with OVCAR-3 ovarian, 43.7 µM; with HCC-2998 colon, greater than 30.9 µM. The TGI in the assay on K-562 leukemia is greater than 100 µM; with OVCAR-8 ovarian, greater than 100 µM; in the assay on M14 melanoma, greater than 100 µM; in the assay on SN12C renal it was greater than 100 µM; in the assay on NCI-H226 lung it was greater than 26.4 µM.
